In general, IC50 refers to the point on the concentration scale where inhibition reaches its midpoint. What is called inhibition is the relative decrease from the control value, in per cent.

We go through 18 compounds from US5789434A, “Derivatives of substituted 4-biarylbutyric acid as matrix metalloprotease inhibitors” (priority 1995, dated 1998).

What all share (type): biochemical
Assay [1] has as its target T1, MMP-3 (Homo sapiens, UniProt P08254).
T1 construct: Truncated Prostromelysin-257 was expressed in a soluble form in E.coli; made in house; host or cells: E. coli
In words: Automated MMP Profiling Assay, MMP-3 fluorogenic. As to conditions: 96-well automated, P218. The text has this: This assay with each invention compound was run with the three enzymes MMP-3, MMP-9 and MMP-2 in parallel as adapted for a 96-well microtitre plate using a Hamilton A® workstation.

In assay [2] the target is T1, MMP-3. Briefly: Primary Thiopeptilide MMP-3 Inhibition Assay. As to conditions: for inhibition at 5 µM: read-out: MMP-3 Thiopep. % inhibition; for IC50: pH 6.5, 13 nM stromelysin, x (n) = average of n determinations, read-out: MMP-3 Thiopep. IC50.
Protocol: Enzyme: recombinant stromelysin expressed in E.coli and purified as described above. […] The protocols for the assay of compounds as stromelysin inhibitors was the same as that used for MMP-9 except that the assay buffer was 50 mM MES, pH 6.5 containing 150 mM NaCl, 10 mM CaCl2, 0.005% Brij, and 1% DMSO.
Another assay concerns the target T2, MMP-9 (Homo sapiens, UniProt P14780).
T2 construct: from tissue; host or cells: human polymorphonuclear leukocytes (PMN) from whole blood (New York Blood Center), PMA-stimulated supernatant
Briefly: Thiopeptilide MMP-9 Inhibition Assay. As to conditions: for inhibition at 5 µM: read-out: MMP-9: Thiopep. % inhibition; for IC50: pH 6.5, x (n) = average of n determinations, read-out: MMP-9: Thiopep. IC50.

T2 sequence (P14780 107-707 limits assumed): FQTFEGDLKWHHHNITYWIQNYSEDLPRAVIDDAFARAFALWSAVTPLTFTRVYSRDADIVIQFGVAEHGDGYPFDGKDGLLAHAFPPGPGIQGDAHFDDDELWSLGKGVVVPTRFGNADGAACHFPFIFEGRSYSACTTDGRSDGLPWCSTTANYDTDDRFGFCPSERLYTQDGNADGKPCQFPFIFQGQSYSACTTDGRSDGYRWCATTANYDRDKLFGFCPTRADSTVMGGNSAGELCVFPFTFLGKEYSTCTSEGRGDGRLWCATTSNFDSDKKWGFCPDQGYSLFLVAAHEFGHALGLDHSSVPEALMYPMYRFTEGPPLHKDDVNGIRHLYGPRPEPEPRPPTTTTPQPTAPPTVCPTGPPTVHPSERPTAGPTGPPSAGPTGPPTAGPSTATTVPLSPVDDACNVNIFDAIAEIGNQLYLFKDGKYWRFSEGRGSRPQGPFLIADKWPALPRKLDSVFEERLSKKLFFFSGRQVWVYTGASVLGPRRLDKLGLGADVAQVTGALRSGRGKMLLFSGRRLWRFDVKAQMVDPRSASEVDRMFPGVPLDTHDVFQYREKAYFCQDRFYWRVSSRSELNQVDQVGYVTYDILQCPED
T1 sequence (P08254 100-274 limits assumed): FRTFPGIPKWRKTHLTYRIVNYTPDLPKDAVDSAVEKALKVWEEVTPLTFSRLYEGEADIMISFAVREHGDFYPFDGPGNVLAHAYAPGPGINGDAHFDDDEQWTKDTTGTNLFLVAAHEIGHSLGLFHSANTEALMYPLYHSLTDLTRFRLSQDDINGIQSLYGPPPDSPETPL

On to `Nc1cccc2c1C(=O)N(C[C@@H]1CC[C@H](C(=O)c3ccc(-c4ccc(Cl)cc4)cc3)[C@H]1C(=O)O)C2=O` (relative stereo) [Example 392, Cyclopentanecarboxylic acid, 2-[(4-amino-1,3-dihydro-1,3-dioxo-2H-isoindol-2-yl)methyl]-5-[(4'-chloro[1,1'-biphenyl]-4-yl)carbonyl]-, (1α,2β,5β)-], for which the IC50 on MMP-3 [1] is 2.5 nM.

Turning to `O=C(CC(CCCc1ccccc1)C(=O)O)c1ccc(-c2cc(Cl)cc(Cl)c2)cc1` (stereo not drawn) [Example 66, [1,1'-Biphenyl]-4-butanoic acid, 3',5=-dichloro-γ-oxo-α-(3-phenylpropyl)-], the inhibition at 5 µM at MMP-3 [2] was determined as 7%; at MMP-9, 11%.

With `O=C(O)C1C2C=CC(CC2)C1C(=O)c1ccc(-c2ccc(Cl)cc2)cc1` (centres unmarked) [Example 330], the inhibition at 5 µM on MMP-3 [2] worked out at 9%; on MMP-9, 16%.

Turning to `Cc1ccccc1S[C@H]1CC[C@@H](C(=O)c2ccc(-c3ccc(Cl)cc3)cc2)[C@H]1C(=O)O` (relative stereo) [Example 305, Cyclopentanecarboxylic acid, 2-[(4'-chloro[1,1'-biphenyl]-4-yl)carbonyl]-5-[(2-methylphenyl)thio]-, (1α,2α,5α)-], the IC50 on MMP-3 [2] turned out to be 470 nM; at MMP-9, 1800 nM.

With `CC(C)c1ccccc1SCC(CC(=O)c1ccc(-c2ccc(Cl)cc2)cc1)C(=O)O` (stereo not drawn) [Example 221, [1,1'-Biphenyl]-4-butanoic acid, 4'-chloro-α-[[[2-(1-methylethyl)phenyl]thio]methyl]-γ-oxo-], the IC50 on MMP-3 [2] was 240 nM; on MMP-9, 2400 nM.

Turning to `O=C(CC(CCCc1ccccc1)c1nnn[nH]1)c1ccc(-c2ccc(Br)cc2)cc1` (centres unmarked) [Example 344, 1-Hexanone, 1-(4'-bromo[1,1'-biphenyl]-4-yl)-6-phenyl-3-(1H-tetrazol-5-yl)-], the inhibition at 5 µM at MMP-3 [2] was 11%; at MMP-9 it was 14%.

Take `CC(C)SCC(CC(=O)c1ccc(-c2ccc(Cl)cc2)cc1)C(=O)O` (stereo not drawn) [Example 239, [1,1'-Biphenyl]-4-butanoic acid, 4'-chloro-α-[[(1-methylethyl)thio]methyl]-γ-oxo-]: the IC50 on MMP-3 [2] was found to be 490 nM. The inhibition at 5 µM on MMP-9 amounted to 53%.

Regarding `O=C(CC(CCCc1ccccc1)C(=O)O)c1ccc(-c2ccc(O)cc2)cc1` (stereo not drawn) [Example 83, [1,1'-Biphenyl]-4-butanoic acid, 4'-hydroxy-γ-oxo-α-(3-phenylpropyl)-], the values for the IC50 on MMP-3 [2] and at MMP-9 were 720 nM and 1400 nM, respectively.

`Cc1nc(-c2ccc(C(=O)CC(CC(C)C)C(=O)O)cc2)co1` (stereo not drawn) [Example 347, Benzenebutanoic acid, 4-(2-methyl-4-oxazolyl)-α-(2-methylpropyl)-γ-oxo-]: the values for the inhibition at 5 µM at MMP-3 [2] and at MMP-9 were 12% and 0%, respectively.

`O=C(CC(Sc1ccccc1)C(=O)O)c1ccc(-c2ccc(Cl)cc2)cc1` (stereo not drawn) [Example 251, [1,1'-Biphenyl]-4-butanoic acid, 4'-chloro-γ-oxo-α-(phenylthio)-]: the IC50 at MMP-3 [2] was found to be 640 nM; at MMP-9, 7500 nM.

Regarding `CCCCCCCOc1ccc(-c2ccc(C(=O)CC(CCCc3ccccc3)C(=O)O)cc2)cc1` (stereo not drawn) [Example 92, [1,1'-Biphenyl]-4-butanoic acid, 4'-(heptyloxy)-γ-oxo-α-(3-phenylpropyl)-], the inhibition at 5 µM was 60% on MMP-3 [2] and 26% at MMP-9.

Take `O=C(c1ccc(-c2ccc(Cl)cc2)cc1)[C@H]1C[C@H]1C(=O)O` (relative stereo) [Example 292, Cyclopropanecarboxylic acid, 2-[(4'-chloro[1,1'-biphenyl]-4-yl)carbonyl]-, cis-, reference compound]: the figures for the inhibition at 5 µM at MMP-3 [2] and at MMP-9 were 21% and 12%, respectively.

For `O=C(CC(CSc1cccs1)C(=O)O)c1ccc(-c2ccc(Cl)cc2)cc1` (stereo not drawn) [Example 199, [1,1'-Biphenyl]-4-butanoic acid, 4'-chloro-γ-oxo-α-[(2-thienylthio)methyl]-], the results for the 50% inhibitory concentration (IC50) on MMP-3 [2] and at MMP-9 were 170 nM and 200 nM, respectively.

Regarding `C=C(CC(=O)c1ccc(C)cc1)C(=O)O` [Example 28, Benzenebutanoic acid, 4-methyl-α-methylene-γ-oxo-, reference compound], the inhibition at 5 µM on MMP-3 [2] was determined as 14%; at MMP-9 it was 0%.

Take `CCC(C)(CC(=O)O)CC(=O)c1ccc(-c2ccc(Cl)cc2)cc1` (stereo not drawn) [Example 335, [1,1'-Biphenyl]-4-pentanoic acid, 4'-chloro-β-ethyl-β-methyl-δ-oxo-]: the inhibition at 5 µM on MMP-3 [2] came to 55%. At MMP-9, the IC50 was 6000 nM.

Take `O=C(O)CCC(=O)c1ccc(-c2ccc(Cl)cc2)cc1` [Example 6, [1,1'-Biphenyl]-4-butanoic acid, 4'-chloro-γ-oxo-, reference compound]: the IC50 on MMP-3 [2] is 2100 nM. Moreover, the inhibition at 5 µM at MMP-9 was determined as 38%.

Turning to `O=C(CC(CSc1ccc(Br)cc1)C(=O)O)c1ccc(-c2ccc(Cl)cc2)cc1` (stereo not drawn) [Example 210, [1,1'-Biphenyl]-4-butanoic acid, α-[[(4-bromophenyl)thio]methyl]-4'-chloroγ-oxo-], the IC50 on MMP-3 [2] came out at 500 nM; at MMP-9 it was 205 nM.

In the case of `O=C(CC(C/C=C/c1ccccc1)C(=O)O)c1ccc(-c2ccc(Cl)cc2)cc1` (stereo not drawn) [Example 183, [1,1'-Biphenyl]-4-butanoic acid, 4'-chloro-γ-oxo-α-(3-phenyl-2-propenyl)-, (E)-], the values for the half-inhibitory concentration (IC50) at MMP-3 [2] and at MMP-9 were 270 nM and 710 nM, respectively.
